According to US20260256792A1, “TREATMENT OF CHRONIC SPONTANEOUS URTICARIA BY ADMINISTERING (R)-2-[3-[4-AMINO-3-(2-FLUORO-4-PHENOXY-PHENYL)PYRAZOLO[3,4-D]PYRIMIDIN-1-YL]PIPERIDINE-1-CARBONYL]-4-METHYL-4-[4-(OXETAN-3-YL)PIPERAZIN-1-YL]PENT-2-ENENITRILE” (priority 2023, published 2026):

System: moderate-to-severe chronic spontaneous urticaria (CSU)
Assay: Phase 2 CSU study: urticaria control test (UCT)
Format: in vivo, human
Parameters: key to UCT, Mean / UCT, Median / UCT change from baseline, Mean / UCT change from baseline, Median: UCT total = sum of 4 item scores; low = low disease control
Text: The study comprises a 12 week, randomized, double-blind, placebo-controlled, multi-center, dose-ranging efficacy and safety phase, followed by a 40 week open label extension (OLE) phase (see FIG. 1). The study consists of three phases and an optional OLE phase. […] To this end, the UCT was proposed as a tertiary endpoint in this study. […] The dermatology life quality index (DLQI) was proposed as a tertiary endpoint in this study. […] Low scores indicate high disease activity and low disease control. The UCT total score is calculated by adding all 4 individual item scores. […] The recall period is the previous 4 weeks. Patients were to complete the UCT questionnaire during their site visit.

[1] = 400 mg QPM, Week 8, ITT population
[2] = 400 mg QPM, Week 8, omalizumab-naïve population
[3] = 400 mg QPM, Week 8, prior omalizumab use incl. incomplete responders
[4] = 400 mg QPM, Week 12, ITT population
[5] = 400 mg QPM, Week 12, omalizumab-naïve population
[6] = 400 mg QPM, Week 12, prior omalizumab use incl. incomplete responders
[7] = 400 mg TID, End of study, omalizumab-naïve population
[8] = 400 mg TID, End of study, prior omalizumab use incl. incomplete responders
[9] = 400 mg TID, Week 4, ITT population
[10] = 400 mg TID, Week 4, omalizumab-naïve population
[11] = 400 mg TID, Week 4, prior omalizumab use incl. incomplete responders
[12] = 400 mg TID, Week 8, ITT population
[13] = 400 mg TID, Week 8, omalizumab-naïve population
[14] = 400 mg TID, Week 8, prior omalizumab use incl. incomplete responders
[15] = 400 mg TID, Week 12, ITT population
[16] = 400 mg TID, Week 12, omalizumab-naïve population
[17] = 400 mg TID, Week 12, prior omalizumab use incl. incomplete responders

In the case of `CC(C)(C=C(C#N)C(=O)N1CCC[C@@H](n2nc(-c3ccc(Oc4ccccc4)cc3F)c3c(N)ncnc32)C1)N1CCN(C2COC2)CC1` [rilzabrutinib, (R)-2-[3-[4-amino-3-(2-fluoro-4-phenoxy-phenyl)pyrazolo[3,4-d]pyrimidin-1-yl]piperidine-1-carbonyl]-4-methyl-4-[4-(oxetan-3-yl)piperazin-1-yl]pent-2-enenitrile], the “UCT % Change difference for rilzabrutinib vs. placebo LS Mean (95% CI)” value (shortened to “UCT % Change difference … (95% CI)”) [1] is reported as −37.84 (−167.44, 91.76) %, the “UCT % Change from baseline LS Mean (SE)” value [1] is reported as 126.71 (44.63) % and the “UCT Change difference for rilzabrutinib vs. placebo LS Mean (95% CI)” value (“UCT Change difference … (95% CI)” for short) [1] is reported as −1.21 (−3.16, 0.74). For the same compound, the “UCT Change from baseline LS Mean (SE)” value [1] was 3.16 (0.71), the “UCT Post-baseline Mean (SD)” value [1] was 6.97 (3.84) and the “UCT % Change difference … (95% CI)” value [2] was −48.49 (−177.78, 80.81) %. For the same compound, the “UCT % Change from baseline LS Mean (SE)” value [2] was 121.09 (44.66) %, the “UCT Change difference … (95% CI)” value [2] was −1.49 (−3.43, 0.45) and the “UCT Change from baseline LS Mean (SE)” value [2] was 2.98 (0.71). For the same compound, the “UCT Post-baseline Mean (SD)” value [2] was 6.84 (3.84), the “UCT change from baseline, Mean” value [2] was 3.09 and the “UCT change from baseline, Median” value [2] was 2.00. For the same compound, the “UCT percent change from baseline, Mean” value [2] was 138.85%, the “UCT, Median” value [2] was 7.00 and the “UCT change from baseline, Mean” value [3] was 6.00. For the same compound, the “UCT change from baseline, Median” value [3] was 6.00, the “UCT percent change from baseline, Mean” value [3] was 120.00% and the “UCT percent change from baseline, Median” value [3] was 120.00%. For the same compound, the “UCT % Change difference … (95% CI)” value [4] was −100.02 (−238.68, 38.64) %, the “UCT % Change from baseline LS Mean (SE)” value [4] was 99.76 (47.53) % and the “UCT Change difference … (95% CI)” value [4] was −1.82 (−3.87, 0.23). For the same compound, the “UCT Change from baseline LS Mean (SE)” value [4] was 2.92 (0.76), the “UCT Post-baseline Mean (SD)” value [4] was 6.97 (3.84) and the “UCT % Change difference … (95% CI)” value [5] was −105.95 (−247.17, 35.27) %. The “UCT Change difference … (95% CI)” value [5] was −1.96 (−3.99, 0.08), the “UCT Change from baseline LS Mean (SE)” value [5] was 2.77 (0.75) and the “UCT Post-baseline Mean (SD)” value [5] was 6.88 (3.86). The “UCT change from baseline, Mean” value [5] was 3.13, the “UCT change from baseline, Median” value [5] was 2.00 and the “UCT percent change from baseline, Mean” value [5] was 121.74%. For the same compound, the “UCT percent change from baseline, Median” value [5] was 92.86%, the “UCT, Median” value [5] was 7.00 and the “UCT change from baseline, Mean” value [6] was 5.00. For the same compound, the “UCT change from baseline, Median” value [6] was 5.00, the “UCT percent change from baseline, Mean” value [6] was 100.00% and the “UCT percent change from baseline, Median” value [6] was 100.00%. The UCT over baseline (400 mg TID) was “mild increase”, the “UCT change from baseline, Mean” value [7] was 4.00 and the “UCT change from baseline, Median” value [7] was 4.00. The “UCT percent change from baseline, Mean” value [7] was 41.03%, the “UCT percent change from baseline, Median” value [7] was 41.03% and the “UCT change from baseline, Mean” value [8] was 11.60. For the same compound, the “UCT change from baseline, Median” value [8] was 13.00, the “UCT percent change from baseline, Mean” value [8] was 7.80% and the “UCT percent change from baseline, Median” value [8] was 9.00%. For the same compound, the “UCT, Mean” value [8] was 4.83, the “UCT, Median” value [8] was 4.00 and the “UCT % Change difference … (95% CI)” value [9] was 122.56 (−10.01, 255.13) %. The “UCT % Change from baseline LS Mean (SE)” value [9] was 262.11 (48.72) %, the “UCT Change difference … (95% CI)” value [9] was 2.34 (0.46, 4.22) and the “UCT Change from baseline LS Mean (SE)” value [9] was 5.68 (0.68). For the same compound, the “UCT Post-baseline Mean (SD)” value [9] was 10.03 (4.20), the “UCT % Change difference … (95% CI)” value [10] was 124.43 (−9.74, 258.61) % and the “UCT % Change from baseline LS Mean (SE)” value [10] was 267.24 (49.68) %. For the same compound, the “UCT Change difference … (95% CI)” value [10] was 2.23 (0.33, 4.13), the “UCT Change from baseline LS Mean (SE)” value [10] was 5.47 (0.70) and the “UCT Post-baseline Mean (SD)” value [10] was 9.77 (4.17). For the same compound, the “UCT change from baseline, Mean” value [10] was 5.63, the “UCT change from baseline, Median” value [10] was 6.50 and the “UCT percent change from baseline, Mean” value [10] was 254.30%. For the same compound, the “UCT percent change from baseline, Median” value [10] was 100.00%, the “UCT change from baseline, Mean” value [11] was 7.80 and the “UCT change from baseline, Median” value [11] was 9.00. The “UCT percent change from baseline, Mean” value [11] was 146.88%, the “UCT percent change from baseline, Median” value [11] was 143.75% and the “UCT, Median” value [11] was 13.00. The “UCT % Change difference … (95% CI)” value [12] was 108.30 (−18.30, 234.90) %, the “UCT % Change from baseline LS Mean (SE)” value [12] was 272.85 (43.60) % and the “UCT Change difference … (95% CI)” value [12] was 1.43 (−0.50, 3.37). The “UCT Change from baseline LS Mean (SE)” value [12] was 5.80 (0.69), the “UCT Post-baseline Mean (SD)” value [12] was 10.00 (3.85) and the “UCT % Change difference … (95% CI)” value [13] was 102.55 (−31.38, 236.49) %. The “UCT % Change from baseline LS Mean (SE)” value [13] was 272.13 (49.40) %, the “UCT Change difference … (95% CI)” value [13] was 1.19 (−0.75, 3.12) and the “UCT Change from baseline LS Mean (SE)” value [13] was 5.66 (0.71). The “UCT Post-baseline Mean (SD)” value [13] was 9.80 (3.86), the “UCT change from baseline, Median” value [13] was 6.50 and the “UCT percent change from baseline, Mean” value [13] was 277.48%. For the same compound, the “UCT percent change from baseline, Median” value [13] was 120.83%, the “UCT, Median” value [13] was 9.50 and the “UCT change from baseline, Median” value [14] was 5.00. For the same compound, the “UCT percent change from baseline, Mean” value [14] was 107.33%, the “UCT percent change from baseline, Median” value [14] was 25.00% and the “UCT % Change difference … (95% CI)” value [15] was 122.43 (−16.89, 261.74) %. The “UCT % Change from baseline LS Mean (SE)” value [15] was 322.21 (47.00) %, the “UCT Change difference … (95% CI)” value [15] was 1.80 (−0.20, 3.79) and the “UCT Change from baseline LS Mean (SE)” value [15] was 6.53 (0.70). For the same compound, the “UCT Post-baseline Mean (SD)” value [15] was 10.69 (4.25), the “UCT % Change difference … (95% CI)” value [16] was 131.76 (−18.16, 281.68) % and the “UCT % Change from baseline LS Mean (SE)” value [16] was 329.00 (51.79) %. For the same compound, the “UCT Change difference … (95% CI)” value [16] was 1.58 (−0.47, 3.63), the “UCT Change from baseline LS Mean (SE)” value [16] was 6.31 (0.76) and the “UCT change from baseline, Median” value [16] was 6.00. The “UCT percent change from baseline, Mean” value [16] was 311.71%, the “UCT percent change from baseline, Median” value [16] was 102.86% and the “UCT change from baseline, Mean” value [17] was 8.00. For the same compound, the “UCT change from baseline, Median” value [17] was 9.00, the “UCT percent change from baseline, Mean” value [17] was 156.25% and the “UCT percent change from baseline, Median” value [17] was 162.50%. The “patients achieving a UCT≥12” value (400 mg TID, over time up to Week 12) was > 20%.
